Among the test systems are TK-10 renal; SW-620 colon; MCF7 breast; HS 578T breast; MDA-MB-231 breast; SK-MEL-2 melanoma; NCI-H460 lung; SF-295 CNS; SF-268 CNS; OVCAR-4 ovarian; 786-0 renal; U251 CNS; T-47D breast; MDA-MB-435; OVCAR-3 ovarian; M14 melanoma; OVCAR-8 ovarian; NCI-H522 lung.
Common to all, as to experiment: growth of human tumour cells (NCI), 48 h

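How tested: cells in 96-well plates exposed to compound for 48 hours at five concentrations. Definition used: TGI = concentration required for complete inhibition of growth.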

For the compound `COC(=O)/C=C1/OC(c2ccc(C)cc2)=C(Cl)C1=O`, the TGI in the assay with TK-10 renal stood at 34.9 µM; with SW-620 colon it was 28.9 µM; with MCF7 breast it was 34.9 µM; in the assay with HS 578T breast, 68.9 µM; in the assay with MDA-MB-231 breast, 33.6 µM; in the assay with SK-MEL-2 melanoma, 34.3 µM. Besides, the TGI turned out to be 51 µM in the assay on NCI-H460 lung; 41.7 µM in the assay with SF-295 CNS; 41.6 µM in the assay on SF-268 CNS; 27.5 µM with OVCAR-4 ovarian; 27 µM with 786-0 renal; 24.6 µM in the assay with U251 CNS. In addition, the TGI in the assay with T-47D breast worked out at 52.1 µM; with MDA-MB-435, 34.9 µM; with OVCAR-3 ovarian, 27.1 µM; with M14 melanoma, 35.5 µM; in the assay with OVCAR-8 ovarian it was 41.3 µM; in the assay with NCI-H522 lung it was 23.2 µM.

As for `O=c1cc(-c2cccc(OCc3ccccc3)c2)[nH]c2cc3c(cc12)OCO3`, the TGI was 24.7 µM with TK-10 renal; over 100 µM with SW-620 colon; over 100 µM in the assay with MCF7 breast; 3.02 µM in the assay with HS 578T breast; 9.03 µM in the assay with MDA-MB-231 breast; 5.88 µM with SK-MEL-2 melanoma. The TGI was 11.2 µM in the assay on NCI-H460 lung; 14.4 µM with SF-295 CNS; over 70.3 µM in the assay with SF-268 CNS; over 27.8 µM in the assay on OVCAR-4 ovarian; 3.98 µM in the assay on 786-0 renal; 1.84 µM in the assay on U251 CNS. Moreover, the TGI in the assay with T-47D breast is over 100 µM; in the assay on MDA-MB-435 it was 0.36 µM; in the assay on OVCAR-3 ovarian, 3.58 µM; in the assay with M14 melanoma, over 84.5 µM; with OVCAR-8 ovarian it was 9.87 µM; with NCI-H522 lung it was 1.42 µM.

In the case of `COCN1C(=O)[C@@H]2CCCN2C(=O)c2ccc([N+](=O)[O-])cc21`, the TGI in the assay with TK-10 renal, in the assay on SW-620 colon, with MCF7 breast, in the assay on HS 578T breast, in the assay on MDA-MB-231 breast and in the assay on SK-MEL-2 melanoma was over 100 µM throughout. Moreover, the TGI with NCI-H460 lung, with SF-295 CNS, in the assay with SF-268 CNS, with OVCAR-4 ovarian, with 786-0 renal and with U251 CNS was over 100 µM in each case. For the same compound, the TGI in the assay with T-47D breast, in the assay with MDA-MB-435, in the assay on OVCAR-3 ovarian, with M14 melanoma, with OVCAR-8 ovarian and in the assay with NCI-H522 lung was over 100 µM each time.

(Values after PubChem BioAssay (NCI).)
